Experimental data reported in patent US6936602B1, “Benzazepine derivatives, process for the preparation of the same and uses thereof” (Takeda Chemical Industries, Ltd., priority 1999, dated 2005).

Tested on: not given
Test: not given
Conditions: not given

Structure (SMILES)	melting point [°C]
CCCOCCOc1ccc(-c2ccc3c(c2)C=C(C(=O)Nc2ccc(CN(C)C4CCOCC4)cc2)CCN3Cc2ccccc2OC)cc1 [Compound 51, 1-(2-methoxybenzyl)-N-[4-[[N-methyl-N-(tetrahydropyran-4-yl)amino]methyl]phenyl]-7-(4-propoxyethoxyphenyl)-2,3-dihydro-1-benzazepine-4-carboxamide]	118 to 119
CCCCOCCOc1ccc(-c2ccc3c(c2)C=C(C(=O)Nc2ccc(CN(C)C4CCOCC4)cc2)CCN3Cc2ccccc2OC)cc1 [Compound 52, 7-(4-butoxyethoxyphenyl)-1-(2-methoxybenzyl)-N-[4-[[N-methyl-N-(tetrahydropyran-4-yl)amino]methyl]phenyl]-2,3-dihydro-1-benzazepine-4-carboxamide]	111.5 to 112.5
CCCOCCOc1ccc(-c2ccc3c(c2)C=C(C(=O)Nc2ccc(CN(C)C4CCOCC4)cc2)CCN3Cc2cccc(OC)c2)cc1 [Compound 53, 1-(3-methoxybenzyl)-N-[4-[[N-methyl-N-(tetrahydropyran-4-yl)amino]methyl]phenyl]-7-(4-propoxyethoxyphenyl)-2,3-dihydro-1-benzazepine-4-carboxamide]	113 to 114
CCCCOCCOc1ccc(-c2ccc3c(c2)C=C(C(=O)Nc2ccc(CN(C)C4CCOCC4)cc2)CCN3Cc2cccc(OC)c2)cc1 [Compound 54, 7-(4-butoxyethoxyphenyl)-1-(3-methoxybenzyl)-N-[4-[[N-methyl-N-(tetrahydropyran-4-yl)amino]methyl]phenyl]-2,3-dihydro-1-benzazepine-4-carboxamide]	107.5 to 108.5
CCCOCCOc1ccc(-c2ccc3c(c2)C=C(C(=O)Nc2ccc(CN(C)C4CCOCC4)cc2)CCN3Cc2ccc(OC)cc2)cc1 [Compound 55, 1-(4-methoxybenzyl)-N-[4-[[N-methyl-N-(tetrahydropyran-4-yl)amino]methyl]phenyl]-7-(4-propoxyethoxyphenyl)-2,3-dihydro-1-benzazepine-4-carboxamide]	160 to 161
CCCCOCCOc1ccc(-c2ccc3c(c2)C=C(C(=O)Nc2ccc(CN(C)C4CCOCC4)cc2)CCN3Cc2ccc(OC)cc2)cc1 [Compound 56, 7-(4-butoxyethoxyphenyl)-1-(4-methoxybenzyl)-N-[4-[[N-methyl-N-(tetrahydropyran-4-yl)amino]methyl]phenyl]-2,3-dihydro-1-benzazepine-4-carboxamide]	151 to 152
CCCOCCOc1ccc(-c2ccc3c(c2)C=C(C(=O)Nc2ccc(CN(C)C4CCOCC4)cc2)CCN3Cc2ccsc2)cc1 [Compound 57, N-[4-[[N-methyl-N-(tetrahydropyran-4-yl)amino]methyl]phenyl]-7-(4-propoxyethoxyphenyl)-1-(3-thienylmethyl)-2,3-dihydro-1-benzazepine-4-carboxamide]	131.5 to 132.5
CCCOCCOc1ccc(-c2ccc3c(c2)C=C(C(=O)Nc2ccc(CN(C)C4CCOCC4)cc2)CCN3Cc2cccs2)cc1 [Compound 59, N-[4-[[N-methyl-N-(tetrahydropyran-4-yl)amino]methyl]phenyl]-7-(4-propoxyethoxyphenyl)-1-(2-thienylmethyl)-2,3-dihydro-1-benzazepine-4-carboxamide]	104.5 to 105.5
CCCCOCCOc1ccc(-c2ccc3c(c2)C=C(C(=O)Nc2ccc(CN(C)C4CCOCC4)cc2)CCN3Cc2cccs2)cc1 [Compound 60, 7-(4-butoxyethoxyphenyl)-N-[4-[[N-methyl-N-(tetrahydropyran-4-yl)amino]methyl]phenyl]-1-(2-thienylmethyl)-2,3-dihydro-1-benzazepine-4-carboxamide]	84 to 85
CCCOCCOc1ccc(-c2ccc3c(c2)C=C(C(=O)Nc2ccc(CN(C)C4CCOCC4)cc2)CCN3Cc2ccoc2)cc1 [Compound 61, 1-(3-furylmethyl)-N-[4-[[N-methyl-N-(tetrahydropyran-4-yl)amino]methyl]phenyl]-7-(4-propoxyethoxyphenyl)-2,3-dihydro-1-benzazepine-4-carboxamide]	115 to 116
CCCCOCCOc1ccc(-c2ccc3c(c2)C=C(C(=O)Nc2ccc(CN(C)C4CCOCC4)cc2)CCN3Cc2ccoc2)cc1 [Compound 62, 7-(4-butoxyethoxyphenyl)-1-(3-furylmethyl)-N-[4-[[N-methyl-N-(tetrahydropyran-4-yl)amino]methyl]phenyl]-2,3-dihydro-1-benzazepine-4-carboxamide]	116 to 117
CCCCOCCOc1ccc(-c2ccc3c(c2)C=C(C(=O)Nc2ccc(CN(C)C4CCOCC4)cc2)CCN3Cc2ccccc2OCC)cc1 [Compound 63, 7-(4-butoxyethoxyphenyl)-1-(2-ethoxybenzyl)-N-[4-[[N-methyl-N-(tetrahydropyran-4-yl)amino]methyl]phenyl]-2,3-dihydro-1-benzazepine-4-carboxamide]	104.5 to 105.5
CCCCOCCOc1ccc(-c2ccc3c(c2)C=C(C(=O)Nc2ccc(CN(C)C4CCOCC4)cc2)CCN3Cc2cccc(OCCC)c2)cc1 [Compound 64, 7-(4-butoxyethoxyphenyl)-N-[4-[[N-methyl-N-(tetrahydropyran-4-yl)amino]methyl]phenyl]-1-(3-propoxybenzyl)-2,3-dihydro-1-benzazepine-4-carboxamide]	114.5 to 115.5
CCCCOCCOc1ccc(-c2ccc3c(c2)C=C(C(=O)Nc2ccc(CN(C)C4CCOCC4)cc2)CCN3Cc2cc(OC)ccc2OC)cc1 [Compound 65, 7-(4-butoxyethoxyphenyl)-1-(2,5-dimethoxybenzyl)-N-[4-[[N-methyl-N-(tetrahydropyran-4-yl)amino]methyl]phenyl]-2,3-dihydro-1-benzazepine-4-carboxamide]	143 to 144
CC#CCN1CCC(C(=O)Nc2ccc(CN(C)C3CCOCC3)cc2)=Cc2cc(-c3ccc(OCCOCCCC)cc3)ccc21 [Compound 95, 7-[4-(2-butoxyethoxy)phenyl]-1-(2-butynyl)-N-[4-[N-methyl-N-(tetrahydropyran-4-yl)aminomethyl]phenyl]-2,3-dihydro-1-benzazepine-4-carboxamide]	129 to 131
CCCOCCOc1ccc(-c2ccc3c(c2)C=C(C(=O)Nc2ccc(CN(C)C4CCOCC4)cc2)CCN3CCCOC)cc1 [Compound 103, 1-(3-methoxypropyl)-N-[4-[[N-methyl-N-(tetrahydropyran-4-yl)amino]methyl]phenyl]-7-[4-(2-propoxyethoxy)phenyl]-2,3-dihydro-1H-1-benzazepine-4-carboxamide]	87 to 90

Biological target: T1, human CCR5 (Homo sapiens, UniProt P51681)
T1 construct: expressed in transfected cells
Test: Evaluation of test compounds based on CCR5 antagonistic activity: inhibition of [125I]-RANTES binding to CCR5/CHO cells
Conditions: Test Compound 1 μM, 100 pM [125I]-RANTES, room temperature for 40 minutes
Experimental: Cloning of CCR5 gene was carried out by a PCR method from human spleen cDNA. With using 0.5 ng of spleen cDNA (Toyobo, QUICK-Clone cDNA) as template, PCR was performed in DNA Thermal Cycler 480 (Perkin-Elmer) (reaction conditions: 30 cycles of 95° C. for 1 minute, 60° C. for 1 minute, and 75° C. for 5 minutes) by adding each 25 pmol of primers of a primer set, • SEQ ID NO.: 1 described in Test Example (1) of WO 99/32100 [length of sequence: 34; type of sequence: nucleic acid; strandedness: single; topology: straight; kind of sequence: other nucleic acid synthetic DNA, and • SEQ ID NO.: 2 described in Test Example (1) of WO 99/32100 [length of sequence: 34; type of sequence: nucleic acid; strandedness: single; topology: straight; kind of sequence: other nucleic acid synthetic DNA which were designed referring to nucleotide sequence of CCR5 gene reported by Samson et. al. (Biochemistry, 35(11), 3362-3367 (1996)) and by using TaKaRa EX Taq (Takara Shuzo). The resultant PCR product was subjected to agarose gel electrophoresis to collect about 1.0 kb DNA fragment, which was subjected to Original TA Cloning Kit (Funakoshi) to carry out cloning of CCR5 gene. (2) Preparation of Plasmid for Expression of Human CCR5
The plasmid obtained in the above (1) was digested with restriction enzymes XbaI (Takara Shuzo) and BamHI (Takara Shuzo) and subjected to agarose gel electrophoresis to collect about 1.0 kb DNA fragment.
The DNA fragment was mixed with plasmid pcDNA3.1 (Funakoshi) for expression in animal cells, said plasmid being digested with XbaI and BamHI, and they were ligated with DNA Ligation Kit Ver.2 (Takara Shuzo). The resulting plasmid was subjected to transformation of competent cell of E. coli JM109 (Takara Shuzo) to obtain plasmid pCKR5.
CHO-K1 cells were grown in 750 ml of tissue culture flask (Becton Dickinson) using Ham's F12 medium (Nihon Pharmaceutical) containing 10% fetal calf serum (Life Tech Oriental) and taken off with 0.5 g/L trypsin-0.2 g/L EDTA (Life Tech Oriental). The cells were washed with PBS (Life Tech Oriental), centrifuged (1000 rpm, 5 minutes), and suspended in PBS. With using Gene Pulser (Bio-Rad Laboratories), DNA was introduced into the cells under the conditions shown below. That is, to the cuvette of 0.4 cm gap were added 8×10^6 cells and 10 μg of plasmid pCKR5 for expression of human CCR5, and electroporation was carried out under 0.25 kV of voltage and 960 μF of capacitance. The cells were transferred into Ham's F12 medium containing 10% fetal calf serum, and cultivated for 24 hours. The cells were again taken off and centrifuged, and suspended in Ham's F12 medium containing 10% fetal calf serum and 500 μg/ml of geneticin (Life Tech Oriental). The suspension was diluted to give 10^4 cells/ml of the suspension, which was inoculated on a 96 well plate (Becton Dickinson) to give geneticin resistant cells.
The resulting geneticin resistant cells were cultivated in 96 well plate (Becton Dickinson), and cells expressing CCR5 were selected from the geneticin resistant cells. That is, in assay buffer (Ham's F12 medium containing 0.5% BSA and 20 mM HEPES (Wako Pure Chemical, pH7.2)) to which was added 200 pM of [^125I]-RANTES (Amersham) as a ligand, a binding reaction was carried out at room temperature for 46 minutes, and the buffer was washed with cooled PBS. To the buffer was added 50 μl/well of 1M NaOH, and the mixture was stirred. Radioactivity was determined with a y-counter to select CCR5/CHO cells which specifically bind to the ligand.
The CCR5/CHO cells were inoculated on 96 well microplate (5×10^4 cells/well) and cultivated for 24 hours. The medium was removed by means of suction, and to each well was added an assay buffer containing Test Compound (1 μM) and then 100 pM of [^125I]-RANTES (Amersham) as a ligand. A binding assay was carried out at room temperature for 40 minutes, and an assay buffer was removed by means of suction. […]

T1 sequence (P51681 whole entry): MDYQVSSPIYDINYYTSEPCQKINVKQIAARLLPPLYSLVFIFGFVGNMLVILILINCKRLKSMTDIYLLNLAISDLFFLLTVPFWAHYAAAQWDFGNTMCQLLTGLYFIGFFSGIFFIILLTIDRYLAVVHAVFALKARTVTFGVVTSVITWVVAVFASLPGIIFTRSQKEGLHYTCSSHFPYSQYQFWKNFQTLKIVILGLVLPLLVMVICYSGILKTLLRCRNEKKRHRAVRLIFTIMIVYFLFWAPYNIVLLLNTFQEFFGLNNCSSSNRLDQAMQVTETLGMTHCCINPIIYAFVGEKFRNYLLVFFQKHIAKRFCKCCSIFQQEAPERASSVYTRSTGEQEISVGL

Structure (SMILES)	Inhibitory Rate (%)
CCCCOCCOc1ccc(-c2ccc3c(c2)C=C(C(=O)Nc2ccc(CN(C)C4CCOCC4)cc2)CCN3CC)cc1 [Compound 19, 7-[4-(2-butoxyethoxy)phenyl]-1-ethyl-N-[4-[[N-methyl-N-(tetrahydro-2H-pyran-4-yl)amino]methyl]phenyl]-2,3-dihydro-1-H-1-benzazepine-4-carboxamide]	100

Same assay, conditions: Test Compound 1 μM, 100 pM [125I]-RANTES, room temperature for 40 minutes, read-out: Inhibitory Rate (%)

Structure (SMILES)	inhibition at 1 µM [%]
CCOCCOc1ccc(-c2ccc3c(c2)C=C(C(=O)Nc2ccc(CN(C)C4CCOCC4)cc2)CCN3C=O)cc1F [Compound 20, 7-[4-(2-ethoxy)ethoxy-3-fluorophenyl]-1-formyl-N-[4-[[N-methyl-N-(tetrahydro-2H-pyran-4-yl)amino]methyl]phenyl]-2,3-dihydro-1H-1-benzazepine-4-carboxamide]	94
